Measurements reported in ChEMBL document CHEMBL5291721, “A preclinical secondary pharmacology resource illuminates target-adverse drug reaction associations of marketed drugs” (Nat Commun, 2023).

How the values were obtained:
Vasopressin V2 receptor = Vasopressin V2 receptor (Homo sapiens, UniProt P30518)
[1] = molecular target: T1, Type-1 angiotensin II receptor (Homo sapiens, UniProt P30556)
T1 sequence (P30556 whole entry): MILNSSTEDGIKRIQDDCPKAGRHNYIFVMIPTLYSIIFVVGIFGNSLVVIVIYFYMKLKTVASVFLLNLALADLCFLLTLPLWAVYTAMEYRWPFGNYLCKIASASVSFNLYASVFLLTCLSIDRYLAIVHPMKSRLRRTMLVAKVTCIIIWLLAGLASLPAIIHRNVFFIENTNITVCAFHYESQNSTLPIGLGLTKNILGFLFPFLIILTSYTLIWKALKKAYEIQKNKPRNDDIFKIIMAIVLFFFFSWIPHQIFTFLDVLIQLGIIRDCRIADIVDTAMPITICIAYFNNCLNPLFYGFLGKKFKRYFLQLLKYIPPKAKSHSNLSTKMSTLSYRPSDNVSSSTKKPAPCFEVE

Glucocorticoid receptor = molecular target: T2, Glucocorticoid receptor (Homo sapiens, UniProt P04150)
T2 sequence (P04150 whole entry): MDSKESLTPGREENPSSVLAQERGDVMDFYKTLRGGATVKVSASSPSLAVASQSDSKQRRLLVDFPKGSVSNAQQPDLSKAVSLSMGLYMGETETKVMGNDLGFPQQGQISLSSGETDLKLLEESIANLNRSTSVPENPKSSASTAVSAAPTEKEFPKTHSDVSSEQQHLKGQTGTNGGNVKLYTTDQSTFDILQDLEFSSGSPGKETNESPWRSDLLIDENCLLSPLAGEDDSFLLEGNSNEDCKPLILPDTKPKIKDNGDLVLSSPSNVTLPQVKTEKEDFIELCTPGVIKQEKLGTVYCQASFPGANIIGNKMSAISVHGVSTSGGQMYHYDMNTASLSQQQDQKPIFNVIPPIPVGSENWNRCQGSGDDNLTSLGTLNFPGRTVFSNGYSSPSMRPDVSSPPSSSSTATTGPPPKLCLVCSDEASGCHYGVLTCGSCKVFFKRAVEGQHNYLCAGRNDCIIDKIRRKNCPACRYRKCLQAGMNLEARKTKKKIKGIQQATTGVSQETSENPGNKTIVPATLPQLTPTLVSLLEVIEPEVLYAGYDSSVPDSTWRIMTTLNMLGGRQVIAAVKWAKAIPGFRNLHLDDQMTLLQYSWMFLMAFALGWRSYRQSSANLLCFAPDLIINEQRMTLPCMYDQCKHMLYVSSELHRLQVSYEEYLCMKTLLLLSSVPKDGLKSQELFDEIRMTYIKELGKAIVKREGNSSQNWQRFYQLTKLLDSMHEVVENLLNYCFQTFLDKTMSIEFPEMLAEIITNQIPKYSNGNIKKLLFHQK

[2] = molecular target: T3, Alpha-2C adrenergic receptor (Homo sapiens, UniProt P18825); format: functional
T3 sequence (P18825 whole entry): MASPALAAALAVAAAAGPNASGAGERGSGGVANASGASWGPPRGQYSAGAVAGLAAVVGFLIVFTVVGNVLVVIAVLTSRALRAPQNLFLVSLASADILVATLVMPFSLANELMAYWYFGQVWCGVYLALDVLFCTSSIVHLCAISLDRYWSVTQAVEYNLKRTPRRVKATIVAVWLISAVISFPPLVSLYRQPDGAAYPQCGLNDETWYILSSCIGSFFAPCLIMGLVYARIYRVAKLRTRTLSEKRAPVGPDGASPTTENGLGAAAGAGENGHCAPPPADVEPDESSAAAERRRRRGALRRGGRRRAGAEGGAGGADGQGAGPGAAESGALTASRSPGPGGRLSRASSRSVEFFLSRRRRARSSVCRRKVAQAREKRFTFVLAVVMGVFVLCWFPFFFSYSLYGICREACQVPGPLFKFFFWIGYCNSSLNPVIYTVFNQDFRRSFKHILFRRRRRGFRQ

[3] = molecular target: cGMP-inhibited 3',5'-cyclic phosphodiesterase 3A (Homo sapiens, UniProt Q14432); format: functional
Histamine H2 receptor = Histamine H2 receptor (Homo sapiens, UniProt P25021); format: functional, cell-based
[4] = molecular target: T4, Alpha-1A adrenergic receptor (Homo sapiens, UniProt P35348); format: functional, cell-based
T4 sequence (P35348 whole entry): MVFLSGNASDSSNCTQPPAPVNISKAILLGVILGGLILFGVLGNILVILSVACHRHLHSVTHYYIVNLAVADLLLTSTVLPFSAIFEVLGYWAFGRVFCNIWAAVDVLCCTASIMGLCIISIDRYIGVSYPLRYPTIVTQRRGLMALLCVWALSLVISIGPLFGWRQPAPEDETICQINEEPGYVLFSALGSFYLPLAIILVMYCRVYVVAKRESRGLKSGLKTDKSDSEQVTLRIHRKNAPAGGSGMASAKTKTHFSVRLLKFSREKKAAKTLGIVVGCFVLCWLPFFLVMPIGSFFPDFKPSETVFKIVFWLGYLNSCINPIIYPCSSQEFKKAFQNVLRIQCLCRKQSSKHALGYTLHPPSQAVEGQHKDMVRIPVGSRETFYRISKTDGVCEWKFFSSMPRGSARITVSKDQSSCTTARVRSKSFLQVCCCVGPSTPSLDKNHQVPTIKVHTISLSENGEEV

[5] = molecular target: T5, Neuropeptide Y receptor type 1 (Homo sapiens, UniProt P25929)
T5 sequence (P25929 whole entry): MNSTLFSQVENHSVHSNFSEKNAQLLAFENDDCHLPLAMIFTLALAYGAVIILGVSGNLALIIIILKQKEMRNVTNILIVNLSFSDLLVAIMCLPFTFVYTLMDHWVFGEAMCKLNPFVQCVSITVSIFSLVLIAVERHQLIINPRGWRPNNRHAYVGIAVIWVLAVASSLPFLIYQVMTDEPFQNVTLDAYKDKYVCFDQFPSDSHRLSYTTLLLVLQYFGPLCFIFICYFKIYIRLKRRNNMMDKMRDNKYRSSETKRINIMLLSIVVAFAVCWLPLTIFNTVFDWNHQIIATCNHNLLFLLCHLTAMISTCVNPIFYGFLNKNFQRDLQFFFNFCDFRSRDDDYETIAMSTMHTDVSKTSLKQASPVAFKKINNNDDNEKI

[6] = molecular target: 5-hydroxytryptamine receptor 2A (Homo sapiens, UniProt P28223); format: functional, cell-based
[7] = molecular target: Muscarinic acetylcholine receptor M3 (Homo sapiens, UniProt P20309)
[8] = molecular target: Sodium-dependent dopamine transporter (Homo sapiens, UniProt Q01959)
Melanocortin receptor 3 = Melanocortin receptor 3 (Homo sapiens, UniProt P41968)
[9] = molecular target: 5-hydroxytryptamine receptor 2B (Homo sapiens, UniProt P41595); format: functional, cell-based
Further: assay procedure not described here.

Sequence of Histamine H2 receptor (P25021 whole entry): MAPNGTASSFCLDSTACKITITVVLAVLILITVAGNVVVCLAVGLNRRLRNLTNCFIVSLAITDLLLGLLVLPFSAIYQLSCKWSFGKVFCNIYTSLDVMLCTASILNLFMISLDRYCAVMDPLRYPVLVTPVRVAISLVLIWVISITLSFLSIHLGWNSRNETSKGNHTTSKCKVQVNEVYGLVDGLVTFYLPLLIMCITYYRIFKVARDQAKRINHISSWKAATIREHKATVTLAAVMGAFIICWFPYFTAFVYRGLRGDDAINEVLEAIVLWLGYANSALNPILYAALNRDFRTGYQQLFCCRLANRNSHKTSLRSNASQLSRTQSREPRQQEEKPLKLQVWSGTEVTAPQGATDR
Sequence of cGMP-inhibited 3',5'-cyclic phosphodiesterase 3A (Q14432 whole entry): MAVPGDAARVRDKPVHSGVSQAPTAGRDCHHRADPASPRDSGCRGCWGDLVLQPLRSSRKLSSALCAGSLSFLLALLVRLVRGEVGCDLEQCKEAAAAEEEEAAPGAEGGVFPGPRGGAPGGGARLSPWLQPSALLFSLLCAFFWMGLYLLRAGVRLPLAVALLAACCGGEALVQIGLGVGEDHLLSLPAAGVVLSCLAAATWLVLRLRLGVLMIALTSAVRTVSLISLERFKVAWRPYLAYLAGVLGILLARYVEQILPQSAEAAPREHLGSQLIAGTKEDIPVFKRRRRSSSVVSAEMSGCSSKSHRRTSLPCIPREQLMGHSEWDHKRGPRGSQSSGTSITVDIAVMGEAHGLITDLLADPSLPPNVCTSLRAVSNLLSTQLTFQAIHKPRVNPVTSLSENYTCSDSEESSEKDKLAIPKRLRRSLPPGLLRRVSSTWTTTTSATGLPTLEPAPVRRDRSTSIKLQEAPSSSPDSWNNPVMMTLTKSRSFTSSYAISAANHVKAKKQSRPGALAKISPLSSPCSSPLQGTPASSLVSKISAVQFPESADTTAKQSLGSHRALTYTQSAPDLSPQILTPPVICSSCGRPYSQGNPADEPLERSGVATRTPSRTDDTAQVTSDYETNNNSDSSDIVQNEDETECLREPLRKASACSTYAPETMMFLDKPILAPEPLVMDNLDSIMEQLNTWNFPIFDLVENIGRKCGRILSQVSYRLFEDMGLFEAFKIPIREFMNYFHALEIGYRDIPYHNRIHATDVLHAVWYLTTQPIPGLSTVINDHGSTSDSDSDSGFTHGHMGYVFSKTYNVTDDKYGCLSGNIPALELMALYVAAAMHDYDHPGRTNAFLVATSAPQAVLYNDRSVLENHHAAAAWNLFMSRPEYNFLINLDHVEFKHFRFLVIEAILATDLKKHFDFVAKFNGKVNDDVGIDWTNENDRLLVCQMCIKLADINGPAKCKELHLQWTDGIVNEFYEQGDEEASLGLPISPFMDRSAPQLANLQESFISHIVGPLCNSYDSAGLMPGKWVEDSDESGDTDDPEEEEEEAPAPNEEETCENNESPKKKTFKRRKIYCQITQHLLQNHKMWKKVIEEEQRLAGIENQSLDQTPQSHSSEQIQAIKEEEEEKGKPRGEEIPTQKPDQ
Sequence of 5-hydroxytryptamine receptor 2A (P28223 whole entry): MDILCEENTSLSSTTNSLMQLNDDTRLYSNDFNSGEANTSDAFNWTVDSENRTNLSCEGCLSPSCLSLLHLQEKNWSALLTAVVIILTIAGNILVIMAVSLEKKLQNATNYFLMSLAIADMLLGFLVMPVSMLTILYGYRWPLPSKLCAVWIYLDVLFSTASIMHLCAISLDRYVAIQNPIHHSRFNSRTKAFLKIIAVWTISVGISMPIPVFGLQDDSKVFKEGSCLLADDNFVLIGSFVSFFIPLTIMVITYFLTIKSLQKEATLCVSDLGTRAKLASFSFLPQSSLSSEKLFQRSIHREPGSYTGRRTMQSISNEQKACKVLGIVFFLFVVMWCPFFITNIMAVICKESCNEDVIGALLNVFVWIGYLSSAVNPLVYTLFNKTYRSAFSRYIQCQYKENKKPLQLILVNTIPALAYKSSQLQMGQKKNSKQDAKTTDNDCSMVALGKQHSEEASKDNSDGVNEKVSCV
Sequence of 5-hydroxytryptamine receptor 2B (P41595 whole entry): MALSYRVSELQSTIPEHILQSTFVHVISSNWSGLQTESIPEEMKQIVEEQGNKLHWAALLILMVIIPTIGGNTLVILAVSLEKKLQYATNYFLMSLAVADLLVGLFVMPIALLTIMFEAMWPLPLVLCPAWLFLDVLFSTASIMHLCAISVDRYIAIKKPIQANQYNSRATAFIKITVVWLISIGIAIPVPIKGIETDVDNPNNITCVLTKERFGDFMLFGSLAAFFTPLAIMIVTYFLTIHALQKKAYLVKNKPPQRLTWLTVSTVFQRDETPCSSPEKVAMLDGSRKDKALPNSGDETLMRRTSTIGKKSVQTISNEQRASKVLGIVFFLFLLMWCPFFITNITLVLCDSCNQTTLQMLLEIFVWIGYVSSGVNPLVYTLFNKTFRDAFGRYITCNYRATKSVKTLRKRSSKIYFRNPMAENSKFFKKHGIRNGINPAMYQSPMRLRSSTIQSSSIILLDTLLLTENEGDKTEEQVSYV
Sequence of Sodium-dependent dopamine transporter (Q01959 whole entry): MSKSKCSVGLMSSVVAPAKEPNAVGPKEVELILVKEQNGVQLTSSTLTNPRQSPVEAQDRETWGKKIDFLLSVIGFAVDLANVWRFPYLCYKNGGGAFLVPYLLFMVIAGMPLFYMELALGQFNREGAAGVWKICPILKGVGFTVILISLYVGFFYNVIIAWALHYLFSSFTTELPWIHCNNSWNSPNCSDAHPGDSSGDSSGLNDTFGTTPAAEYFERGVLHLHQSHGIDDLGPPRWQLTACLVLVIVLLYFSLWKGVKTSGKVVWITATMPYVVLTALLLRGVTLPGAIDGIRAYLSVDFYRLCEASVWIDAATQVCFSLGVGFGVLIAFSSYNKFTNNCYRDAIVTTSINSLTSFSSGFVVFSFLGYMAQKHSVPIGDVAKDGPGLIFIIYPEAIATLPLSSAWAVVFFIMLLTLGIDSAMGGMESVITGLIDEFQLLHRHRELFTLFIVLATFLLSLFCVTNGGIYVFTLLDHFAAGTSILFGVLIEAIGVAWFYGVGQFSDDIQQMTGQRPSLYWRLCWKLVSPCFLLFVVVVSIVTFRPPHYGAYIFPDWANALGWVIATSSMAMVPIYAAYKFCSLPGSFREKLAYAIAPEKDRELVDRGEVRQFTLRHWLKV
Sequence of Vasopressin V2 receptor (P30518 whole entry): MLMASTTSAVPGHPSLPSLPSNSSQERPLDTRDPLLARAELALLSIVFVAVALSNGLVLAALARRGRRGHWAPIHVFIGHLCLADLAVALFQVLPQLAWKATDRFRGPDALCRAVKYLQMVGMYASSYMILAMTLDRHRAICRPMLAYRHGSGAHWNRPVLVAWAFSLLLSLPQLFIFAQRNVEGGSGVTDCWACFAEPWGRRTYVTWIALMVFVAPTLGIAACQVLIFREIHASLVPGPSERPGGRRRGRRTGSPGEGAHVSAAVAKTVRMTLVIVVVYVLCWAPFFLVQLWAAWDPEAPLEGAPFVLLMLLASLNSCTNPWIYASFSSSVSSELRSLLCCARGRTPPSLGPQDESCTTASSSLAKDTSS
Sequence of Muscarinic acetylcholine receptor M3 (P20309 whole entry): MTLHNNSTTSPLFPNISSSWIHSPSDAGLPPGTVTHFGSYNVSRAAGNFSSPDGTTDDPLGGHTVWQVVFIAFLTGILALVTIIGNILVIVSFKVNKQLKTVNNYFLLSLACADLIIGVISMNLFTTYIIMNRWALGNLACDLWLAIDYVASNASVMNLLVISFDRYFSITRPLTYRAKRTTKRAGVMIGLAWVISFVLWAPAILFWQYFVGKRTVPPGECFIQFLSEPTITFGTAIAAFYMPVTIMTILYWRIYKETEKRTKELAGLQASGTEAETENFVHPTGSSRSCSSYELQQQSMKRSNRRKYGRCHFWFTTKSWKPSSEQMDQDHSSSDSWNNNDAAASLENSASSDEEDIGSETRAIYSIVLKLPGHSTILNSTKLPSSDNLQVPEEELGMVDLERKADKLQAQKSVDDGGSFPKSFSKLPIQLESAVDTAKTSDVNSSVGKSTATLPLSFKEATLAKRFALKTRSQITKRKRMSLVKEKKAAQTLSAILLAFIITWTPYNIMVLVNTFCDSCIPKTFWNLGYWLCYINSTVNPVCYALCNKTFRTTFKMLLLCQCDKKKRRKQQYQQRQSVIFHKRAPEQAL
Sequence of Melanocortin receptor 3 (P41968 whole entry): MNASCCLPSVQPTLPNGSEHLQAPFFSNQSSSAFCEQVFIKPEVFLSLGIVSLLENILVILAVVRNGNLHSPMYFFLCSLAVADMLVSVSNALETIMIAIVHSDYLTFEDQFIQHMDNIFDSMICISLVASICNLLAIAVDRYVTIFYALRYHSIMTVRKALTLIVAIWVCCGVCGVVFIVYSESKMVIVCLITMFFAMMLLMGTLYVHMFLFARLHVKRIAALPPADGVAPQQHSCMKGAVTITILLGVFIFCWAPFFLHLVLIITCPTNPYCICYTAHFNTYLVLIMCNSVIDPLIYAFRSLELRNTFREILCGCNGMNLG

SMILES | AC50 (Vasopressin V2 receptor) | AC50 [1] | AC50 (Glucocorticoid receptor) | AC50 [2] | AC50 [3] | AC50 (Histamine H2 receptor) | AC50 [4] | AC50 [5] | AC50 [6] | AC50 [7] | AC50 [8] | AC50 (Melanocortin receptor 3) | AC50 [9]
CCN(CC)CCOC(=O)c1ccc(N)cc1Cl [CHLOROPROCAINE] | > 30 µM | > 30 µM | > 30 µM | > 30 µM | > 30 µM | > 30 µM | > 30 µM | > 30 µM | > 30 µM | 18 µM | > 30 µM | > 30 µM | > 30 µM
CCC(C)(Oc1ccc(C2(c3ccc(OC(C)(CC)C(=O)O)cc3)CCCCC2)cc1)C(=O)O (configuration not stated) [CLINOFIBRATE] | > 30 µM | > 30 µM | > 30 µM | > 30 µM | > 30 µM | > 30 µM | > 30 µM | > 30 µM | > 30 µM | > 30 µM | > 30 µM | > 30 µM | > 30 µM
CCCCC[C@H](O)/C=C/[C@H]1[C@H](O)CC(=O)[C@@H]1C/C=C\CCCC(=O)O [DINOPROSTONE] | > 30 µM | > 30 µM | > 30 µM | > 30 µM | > 30 µM | > 30 µM | > 30 µM | > 30 µM | > 30 µM | > 30 µM | > 30 µM | > 30 µM | > 30 µM
CC(=O)O[C@H]1C[C@@H]2CC[C@@H]3[C@H](CC[C@@]4(C)[C@H]3C[C@H]([N+]3(C)CCCCC3)[C@@H]4OC(C)=O)[C@@]2(C)C[C@@H]1[N+]1(C)CCCCC1 [PANCURONIUM] | > 10 µM | > 10 µM | > 10 µM | > 10 µM | > 30 µM | > 10 µM | – | > 10 µM | > 10 µM | > 30 µM | > 10 µM | > 10 µM | > 10 µM
CC1(C)C(C=C(Cl)Cl)C1C(=O)OCc1cccc(Oc2ccccc2)c1 (configuration not stated) [PERMETHRIN] | > 10 µM | > 10 µM | > 30 µM | > 10 µM | > 30 µM | > 10 µM | – | > 10 µM | > 10 µM | > 30 µM | > 10 µM | > 10 µM | > 10 µM
CC[N+]1(C)CCCC(OC(=O)C(O)(c2ccccc2)c2ccccc2)C1 (configuration not stated) [PIPENZOLATE] | > 30 µM | > 30 µM | > 30 µM | > 30 µM | > 30 µM | > 30 µM | – | > 30 µM | > 30 µM | 0.019 µM | > 30 µM | > 30 µM | > 30 µM
CN1c2ccccc2C(NCCCCCCC(=O)O)c2ccc(Cl)cc2S1(=O)=O (configuration not stated) [TIANEPTINE] | > 30 µM | > 30 µM | > 30 µM | > 30 µM | > 30 µM | > 30 µM | – | > 30 µM | > 30 µM | > 30 µM | > 30 µM | > 30 µM | > 30 µM
